Data: patent publication US9888679B2, “Protection of progenitor cells and regulation of their differentiation” (Proteobioactives Pty Ltd, priority 2007, dated 2018)
Where “and” joins values, the source holds several entries; their conditions need not be identical. Equal values may be shown once.

System: Murine Progenitor Cell (C3H10T1/2)
Experiment: Proteoglycan biosynthesis (35S-GAG) and DNA content in monolayer cultures
Type: cell-based
Settings: for biosynthesis of proteoglycans: all concentrations of PPS
Protocol: FIG. 9. Concentration dependent effects of Pentosan Polysulfate (PPS) on Murine Progenitor Cell (progenitor cells C3H10T1/2) biosynthesis of Proteoglycans (PGs) and DNA content when grown in monolayer cultures. Data shown=Means±SD.
Murine Progenitor cells (cell lines C3H10T1/2 or ATDC5) purchased from RIKEN Cell Bank (Tsukuba, Japan) or human immunoselected Stro-1+ Progenitor cells (Mesoblast Ltd, Melbourne, Australia) were seeded into 50 mL plastic culture flasks containing 1:1 high glucose DMEM/Ham's F-12 medium (Invitrogen) supplemented with 10% FBS (Sigma) and incubated at 37° C., in 5% CO2. After confluence was reached, progenitor cells were released by trypsinization and harvested by centrifugation. Cells were inoculated to 96-well or 24-well plates at a density of 3×10^4 cells or 2×10^5 cells per well. After 48-hour incubation at 37° C., 5% CO2 confluent monolayers were normally established. The medium was then changed to defined medium, which contained different concentrations of PPS with and without rhNC4 and 5 μCi/ml of ^35S—H2SO4 (PerkinElmer, USA). The experiments were generally terminated after 48 hours incubation when proteoglycan biosynthesis was determined by measuring the incorporation of ^35SO4 into the glycosaminoglycans (^35S-GAGs) as described below.
(A) 96-well plates: Cultures were subjected to proteolytic digestion with papain to release glycosaminoglycans. The papain stock solution used contained 2.5 mg/ml papain (Sigma), 7.9 mg/ml cysteine-HCl (Sigma) in papain digest buffer (0.1M NaAc, 5 mM EDTA, pH6.0). 50 μl of papain stock solution was added to each well. The plate was sealed using plastic sheeting and incubated at 65° C. for 2 hours. […]
The ^35SO4-GAGs in the remained solution (200 ul) were precipitated with Cetyl Pyridinium Chloride (CPC) (Sigma). […] Following addition of 3 ml scintillation liquid and vortexing the radioactivity of the ^35S-GAG-CPC complexes were in the samples were measured by scintillation counting (PerkinElmer, USA) and recorded as DPM/sample. The data then was then normalised for DNA and expressed as ^35-S-GAGs/μg DNA.
(B) 24-well plates: After 48 hours incubation in the defined media, the media per well (containing soluble ^35S-labelled proteoglycans) was separated from the cells and transferred to a 2.0 ml microfuge tube. […] The 35S-GAG-CPC complexes collected through the fibre filter and the radioactivity of 35S-GAG was measured using the liquid scintillation analyser as describe above. The cells were extracted with the RNA reagent and aliquots used to determine gene expression and/or the DNA content was measured by the fluorometric assay and the results expressed as ^35-S-GAGs/μg DNA. […]

pentosan polysulfate [PPS]
PPS concentration best with regard to DNA content (FIG. 9): 5 μl/ml and 10 μl/ml
PPS concentration best with regards to PG synthesis (FIG. 9): 10 μl/ml
biosynthesis of proteoglycans (FIG. 9): increased
biosynthesis of proteoglycans (FIG. 9, listed as polysulfated polysaccharides): chondrogenic promoting effect
